Measured values published in US7858635B2 (priority 2005, dated 2010).

Assays:
M1 muscarinic receptor = molecular target: T1, M1 muscarinic receptor (Homo sapiens, UniProt P11229); test: Functional mobilization of intracellular calcium (FLIPR, Fluo-3), M1-CHO cells; type: cell-based; details: compound nos. 1-454; for Emax: 100% efficacy is the maximum response obtained with the Carbachol control, read-out: M1 Efficacy
T1 construct: expressed in transfected cells; host or cells: CHO cells (M1-CHO, under zeocin and G418 selection)
T1 sequence (P11229 1-460): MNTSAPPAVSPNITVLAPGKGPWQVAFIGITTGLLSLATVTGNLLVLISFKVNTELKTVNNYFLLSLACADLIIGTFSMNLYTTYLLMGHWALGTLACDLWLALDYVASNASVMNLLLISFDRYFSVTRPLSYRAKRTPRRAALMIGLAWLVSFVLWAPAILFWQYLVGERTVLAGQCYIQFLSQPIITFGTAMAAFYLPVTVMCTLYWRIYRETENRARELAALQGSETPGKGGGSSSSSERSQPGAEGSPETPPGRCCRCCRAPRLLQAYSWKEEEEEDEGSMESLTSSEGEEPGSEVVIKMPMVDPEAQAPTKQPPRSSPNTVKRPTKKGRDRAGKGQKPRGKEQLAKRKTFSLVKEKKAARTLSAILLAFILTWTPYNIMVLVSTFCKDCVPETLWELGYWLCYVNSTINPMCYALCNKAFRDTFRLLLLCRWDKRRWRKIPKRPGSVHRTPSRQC
How it was run: (§1)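 Intracellular calcium was tracked by fluorescence (488/540 nm) over 60 sec after compound addition to dye-loaded CHO cells expressing the receptor. Inhibitory activity used a 15 min pre-incubation before carbachol at the subtype EC80.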

M4 muscarinic receptor = molecular target: T2, M4 muscarinic receptor (Homo sapiens, UniProt P08173); test: Functional mobilization of intracellular calcium (FLIPR, Fluo-3), M4-CHO cells; type: cell-based; details: compound nos. 1-454; for Emax: read-out: M4 Efficacy
T2 construct: expressed in transfected cells; host or cells: CHO cells (M4-CHO, under puromycin, zeocin and blasticidin selection)
T2 sequence (P08173 1-479): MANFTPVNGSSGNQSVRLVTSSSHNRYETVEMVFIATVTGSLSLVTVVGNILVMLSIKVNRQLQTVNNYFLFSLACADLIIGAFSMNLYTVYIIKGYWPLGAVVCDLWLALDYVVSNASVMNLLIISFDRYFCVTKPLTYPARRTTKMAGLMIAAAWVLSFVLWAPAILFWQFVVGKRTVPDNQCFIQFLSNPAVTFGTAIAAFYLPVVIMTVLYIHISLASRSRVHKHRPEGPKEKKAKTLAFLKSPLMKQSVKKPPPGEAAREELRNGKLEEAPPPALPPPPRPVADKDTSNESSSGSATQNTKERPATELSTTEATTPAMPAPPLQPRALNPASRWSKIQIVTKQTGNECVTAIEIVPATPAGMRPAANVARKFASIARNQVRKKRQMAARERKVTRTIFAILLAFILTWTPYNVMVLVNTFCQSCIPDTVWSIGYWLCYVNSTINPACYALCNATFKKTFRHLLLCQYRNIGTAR
How it was run: as §1

[1] = M1-CHO cells, calcium mobilization
[2] = 100% efficacy is the maximum response obtained with the Carbachol control
[3] = M4-CHO cells, calcium mobilization

Compound | Emax (M1 muscarinic receptor) | M1 Activity (M1 muscarinic receptor; [1]) | Emax (M4 muscarinic receptor; [2]) | M4 Activity (M4 muscarinic receptor; [3]) | M1 Activity (M1 muscarinic receptor) | M4 Activity (M4 muscarinic receptor) | M4 Efficacy (M4 muscarinic receptor; [2])
CCC1CCC(N2CCC3(CC2)C[C@H](NC(C)=O)c2ccccc23)CC1 (stereo partly shown) [compound 367] | < 65% | + (activity was measured to be greater than or equal to 3.0 μM) | < 55% | + (activity was measured to be greater than or equal to 4.0 μM) |  |  | 
CCOC(=O)N1C2CCC1CC(CN1CCC3(CC1)CNc1ccc(F)cc13)C2 (stereo not shown) [compound 368] | < 65% | +++ (activity was measured to be less than or equal to 0.7 μM) | < 55% | ++ (activity was measured to be between 0.1 μM and 4.0 μM) |  |  | 
Clc1ccc2c(c1)C1(CCO2)CCN([C@@H]2C[C@@H]3CC[C@@H]2C3)CC1 [compound 369] | > 85% | +++ (activity was measured to be less than or equal to 0.7 μM) | > 70% | ++ (activity was measured to be between 0.1 μM and 4.0 μM) |  |  | 
CCOC(=O)N1CCC(N2CCC3(CC2)CN(C(=O)OCCF)c2ccc(F)cc23)CC1 [compound 370] | 65 to 85% | +++ (activity was measured to be less than or equal to 0.7 μM) | > 70% | ++ (activity was measured to be between 0.1 μM and 4.0 μM) |  |  | 
CCOC(=O)N1C2CCC1CC(N1CCC3(CC1)CN(C(C)=O)c1ccc(F)cc13)C2 (stereo not shown) [compound 371] | 65 to 85% | +++ (activity was measured to be less than or equal to 0.7 μM) | > 70% | + (activity was measured to be greater than or equal to 4.0 μM) |  |  | 
Cc1ccc2c(c1)C1(CCN(CC3CC4CCC3O4)CC1)CN2 (stereo not shown) [compound 372] | 65 to 85% | +++ (activity was measured to be less than or equal to 0.7 μM) | > 70% | ++ (activity was measured to be between 0.1 μM and 4.0 μM) |  |  | 
CCOC(=O)N1CCC(N2CCC3(CC2)CN(C(C)=O)c2ccc(-c4cccc(C#N)c4)cc23)CC1 [compound 373] | 65 to 85% | +++ (activity was measured to be less than or equal to 0.7 μM) | > 70% | ++ (activity was measured to be between 0.1 μM and 4.0 μM) |  |  | 
COC(=O)N1CCC(N2CCC3(CC2)CN(C(C)=O)c2ccc(F)cc23)CC1 [compound 374] | 65 to 85% | ++ (activity was measured to be between 0.7 μM and 3.0 μM) | 55 to 70% | + (activity was measured to be greater than or equal to 4.0 μM) |  |  | 
c1ccc2c(c1)NCC21CCN(C2CCCCC2)CC1 [compound 375] | > 85% |  | 55 to 70% |  | +++ (activity was measured to be less than or equal to 0.7 μM) | +++ (activity was measured to be less than or equal to 0.1 μM) | 
Fc1ccc2c(c1)C1(CCN(C[C@H]3C[C@H]4C=C[C@H]3C4)CC1)CO2 [compound 376] | 65 to 85% |  | 55 to 70% |  | +++ (activity was measured to be less than or equal to 0.7 μM) | + (activity was measured to be greater than or equal to 4.0 μM) | 
Fc1ccc2c(c1)C1(CCN(C3CC4CCC(C4)C3)CC1)CN2 (stereo not shown) [compound 377] | 65 to 85% |  | 55 to 70% |  | +++ (activity was measured to be less than or equal to 0.7 μM) | ++ (activity was measured to be between 0.1 μM and 4.0 μM) | 
COCCOC(=O)N1C2CCC1CC(N1CCC3(CC1)COc1ccc(F)cc13)C2 (stereo not shown) [compound 378] | 65 to 85% |  | 55 to 70% |  | ++ (activity was measured to be between 0.7 μM and 3.0 μM) | + (activity was measured to be greater than or equal to 4.0 μM) | 
O=C(C1CC1)N1CC2(CCN(C3CC4CCC(C3)N4C(=O)OC3CCC3)CC2)c2cc(F)ccc21 (stereo not shown) [compound 379] | 65 to 85% |  | 55 to 70% |  | +++ (activity was measured to be less than or equal to 0.7 μM) | ++ (activity was measured to be between 0.1 μM and 4.0 μM) | 
CC(=O)N1CC2(CCN(C3CCN(C(=O)OC(C)C)CC3)CC2)c2cc(C)ccc21 [compound 380] | 65 to 85% |  | 55 to 70% |  | +++ (activity was measured to be less than or equal to 0.7 μM) | ++ (activity was measured to be between 0.1 μM and 4.0 μM) | 
CCOC(=O)N1CCC(N2CCC3(CC2)CN(C(C)=O)c2c(F)cccc23)CC1 [compound 381] | 65 to 85% |  | < 55% |  | +++ (activity was measured to be less than or equal to 0.7 μM) | + (activity was measured to be greater than or equal to 4.0 μM) | 
Cc1ccc2c(c1)C1(CCN(CC3CC4CCC3C4)CC1)CN2C(=O)OC(C)(C)C (stereo not shown) [compound 382] | 65 to 85% |  | 55 to 70% |  | +++ (activity was measured to be less than or equal to 0.7 μM) | + (activity was measured to be greater than or equal to 4.0 μM) | 
COC(=O)N1C2CCC1CC(N1CCC3(CC1)CN(S(C)(=O)=O)c1ccc(F)cc13)C2 (stereo not shown) [compound 383] | 65 to 85% |  | < 55% |  | +++ (activity was measured to be less than or equal to 0.7 μM) | ++ (activity was measured to be between 0.1 μM and 4.0 μM) | 
CCOC(=O)N1CCC(N2CCC3(CC2)CN(C(=O)c2ccccc2)c2ccc(F)cc23)CC1 [compound 384] | < 65% |  | < 55% |  | ++ (activity was measured to be between 0.7 μM and 3.0 μM) | + (activity was measured to be greater than or equal to 4.0 μM) | 
CC(=O)CN1CC2(CCN(C[C@@H]3C[C@H]4C=C[C@H]3C4)CC2)c2cc(F)ccc21 [compound 385] | 65 to 85% |  | < 55% |  | ++ (activity was measured to be between 0.7 μM and 3.0 μM) | + (activity was measured to be greater than or equal to 4.0 μM) | 
CCCOC(=O)N1C2CCC1CC(N1CCC3(CC1)CN(C(=O)OC)c1ccc(F)cc13)C2 (stereo not shown) [compound 386] | < 65% |  | < 55% |  | ++ (activity was measured to be between 0.7 μM and 3.0 μM) | ++ (activity was measured to be between 0.1 μM and 4.0 μM) | 
CC(=O)N1CC2(CCN(C3CCCCC3)CC2)c2cc(F)ccc21 [compound 387] | 65 to 85% |  | < 55% |  | +++ (activity was measured to be less than or equal to 0.7 μM) | ++ (activity was measured to be between 0.1 μM and 4.0 μM) | 
CS(=O)(=O)N1CC2(CCN(C3CC4CCC(C3)N4C(=O)O[C@H]3CCOC3)CC2)c2cc(F)ccc21 (stereo partly shown) [compound 388] | 65 to 85% |  | < 55% |  | +++ (activity was measured to be less than or equal to 0.7 μM) | + (activity was measured to be greater than or equal to 4.0 μM) | 
CCCOC(=O)N1C2CCC1CC(N1CCC3(CC1)CN(C(=O)C1CC1)c1ccc(F)cc13)C2 (stereo not shown) [compound 389] | 65 to 85% |  | < 55% |  | ++ (activity was measured to be between 0.7 μM and 3.0 μM) | + (activity was measured to be greater than or equal to 4.0 μM) | 
CCOC(=O)N1C2CCC1CC(N1CCC3(CC1)CN(C(=O)C(C)C)c1ccc(F)cc13)C2 (stereo not shown) [compound 390] | 65 to 85% |  | < 55% |  | +++ (activity was measured to be less than or equal to 0.7 μM) | + (activity was measured to be greater than or equal to 4.0 μM) | 
CCOC(=O)N1CCC(N2CCC3(CC2)CN(CCOC)c2ccc(F)cc23)CC1 [compound 391] | < 65% |  | < 55% |  | ++ (activity was measured to be between 0.7 μM and 3.0 μM) | + (activity was measured to be greater than or equal to 4.0 μM) | 
CC(=O)NC1CC2(CCN(C[C@H]3C[C@H]4C=C[C@H]3C4)CC2)c2ccccc21 (stereo partly shown) [compound 392] |  |  |  |  | +++ (activity was measured to be less than or equal to 0.7 μM) | + (activity was measured to be greater than or equal to 4.0 μM) | + (efficacy was calculated to be 55% or less)
